Experimental data as given in PubChem BioAssay AID330 (DTP/NCI, 2004).
Where “and” joins values, the source holds several entries; their conditions need not be identical. Identical values can stand only once. Toxic doses and inconclusive results are not listed.

System: P388 leukemia ip, CD2F1 mice, survival T/C
Experiment: NCI In Vivo Anticancer Drug Screen. Data for tumor model P388 Leukemia (intraperitoneal) in CD2F1 (CDF1) mice
Conditions: endpoint: median survival time, higher = longer survival
Summary of the method: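 Mice carrying the transplanted tumor received test compound or vehicle. Survival was recorded in each group, and the value is the treated-group measurement divided by that of the vehicle-treated control group.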

[1] = dose: 100.0 mg/kg/injection, schedule: Q04DX002 (ip), vehicle: Klucel (hydroxypropylcellulose) (HPC)
[2] = dose: 200.0 mg/kg/injection, schedule: Q04DX002 (ip), vehicle: Klucel (hydroxypropylcellulose) (HPC)
[3] = dose: 50.0 mg/kg/injection, schedule: Q01DX009 (ip), vehicle: saline
[4] = dose: 100.0 mg/kg/injection, schedule: Q01DX009 (ip), vehicle: saline
[5] = dose: 200.0 mg/kg/injection, schedule: Q01DX009 (ip), vehicle: saline
[6] = dose: 60.0 mg/kg/injection, schedule: Q01DX005 (ip), vehicle: saline with Tween-80
[7] = dose: 120.0 mg/kg/injection, schedule: Q01DX005 (ip), vehicle: saline with Tween-80
[8] = dose: 240.0 mg/kg/injection, schedule: Q01DX005 (ip), vehicle: saline with Tween-80
[9] = dose: 50.0 mg/kg/injection, schedule: Q01DX005 (ip), vehicle: saline with Tween-80
[10] = dose: 100.0 mg/kg/injection, schedule: Q01DX005 (ip), vehicle: saline with Tween-80
[11] = dose: 50.0 mg/kg/injection, schedule: Q01DX009 (ip), vehicle: saline with Tween-80
[12] = dose: 100.0 mg/kg/injection, schedule: Q01DX009 (ip), vehicle: saline with Tween-80
[13] = dose: 200.0 mg/kg/injection, schedule: Q01DX009 (ip), vehicle: saline with Tween-80
[14] = dose: 100.0 mg/kg/injection, schedule: Q04DX003 (ip), vehicle: saline with Tween-80
[15] = dose: 200.0 mg/kg/injection, schedule: Q04DX003 (ip), vehicle: saline with Tween-80

CCCCC(=O)N/N=C(\C)[C@]1(O)Cc2c(O)c3c(c(O)c2[C@@H](OC2CC(N)C(O)C(C)O2)C1)C(=O)c1c(OC)cccc1C3=O (stereo not given in full)
T/C (dose: 0.12 mg/kg/injection, schedule: Q01DX009 (ip), vehicle: water): 117 % of control | T/C (dose: 0.25 mg/kg/injection, schedule: Q01DX009 (ip), vehicle: water): 122 % of control | T/C (dose: 0.5 mg/kg/injection, schedule: Q01DX009 (ip), vehicle: water): 155 % of control | T/C (dose: 1.0 mg/kg/injection, schedule: Q01DX009 (ip), vehicle: water): 190 % of control | T/C (dose: 2.0 mg/kg/injection, schedule: Q01DX009 (ip), vehicle: water): 180 % of control and 190 % of control | T/C (dose: 4.0 mg/kg/injection, schedule: Q01DX009 (ip), vehicle: water): 195 % of control and 238 % of control | T/C (dose: 8.0 mg/kg/injection, schedule: Q01DX009 (ip), vehicle: water): 152 % of control and 247 % of control

CCOC(=O)C1C(c2ccc(C)cc2)C(C#N)C(=O)NC1(O)c1ccccc1 (stereo not given)
T/C [1]: 99 % of control | T/C [2]: 95 % of control | T/C (dose: 400.0 mg/kg/injection, schedule: Q04DX002 (ip), vehicle: Klucel (hydroxypropylcellulose) (HPC)): 98 % of control

CC(=O)Nc1ccc2c(c1)Cc1cccc(NC(C)=O)c1-2
T/C [3]: 105 % of control | T/C [4]: 110 % of control | T/C [5]: 115 % of control

Cc1cccc(Cl)c1NC(=O)N(C)c1ccccc1
T/C [6]: 99 % of control | T/C [7]: 100 % of control | T/C [8]: 97 % of control

Cc1cc(C)nc(NS(=O)(=O)c2ccc(N=c3c4ccccc4n(Cc4ccccc4)c4ccccc34)cc2)n1
T/C [9]: 98 % of control | T/C [10]: 88 % of control

COC1=CS(C)(=O)=CC(SC)=C1C#N (stereo not given)
T/C (dose: 50.0 mg/kg/injection, schedule: Q04DX002 (ip), vehicle: Klucel (hydroxypropylcellulose) (HPC)): 99 % of control | T/C [1]: 99 % of control | T/C [2]: 98 % of control

O=S1(=O)CC(N2CCCCC2)C=C(c2ccccc2)O1 (stereo not given)
T/C [11]: 103 % of control | T/C [12]: 98 % of control | T/C [13]: 95 % of control

Cc1cc(O)c(C(=O)/C=C(\O)c2ccccc2)c(=O)o1
T/C (dose: 10.5 mg/kg/injection, schedule: Q01DX005 (ip), vehicle: Klucel (hydroxypropylcellulose) (HPC)): 100 % of control | T/C (dose: 21.0 mg/kg/injection, schedule: Q01DX005 (ip), vehicle: Klucel (hydroxypropylcellulose) (HPC)): 102 % of control | T/C (dose: 42.0 mg/kg/injection, schedule: Q01DX005 (ip), vehicle: Klucel (hydroxypropylcellulose) (HPC)): 106 % of control | T/C (dose: 84.0 mg/kg/injection, schedule: Q01DX005 (ip), vehicle: Klucel (hydroxypropylcellulose) (HPC)): 86 % of control

COc1ccc(C(=O)N2CC(O)=CC2=O)cc1
T/C (dose: 50.0 mg/kg/injection, schedule: Q01DX009 (ip), vehicle: Klucel (hydroxypropylcellulose) (HPC)): 105 % of control | T/C (dose: 100.0 mg/kg/injection, schedule: Q01DX009 (ip), vehicle: Klucel (hydroxypropylcellulose) (HPC)): 107 % of control | T/C (dose: 200.0 mg/kg/injection, schedule: Q01DX009 (ip), vehicle: Klucel (hydroxypropylcellulose) (HPC)): 92 % of control

O=c1n(-c2ccccc2)c(=O)n2n1C1C=CC2C23C=CC12CCCC3 (stereo not given)
T/C (dose: 100.0 mg/kg/injection, schedule: Q04DX003 (ip), vehicle: Klucel (hydroxypropylcellulose) (HPC)): 96 % of control | T/C (dose: 200.0 mg/kg/injection, schedule: Q04DX003 (ip), vehicle: Klucel (hydroxypropylcellulose) (HPC)): 96 % of control | T/C (dose: 400.0 mg/kg/injection, schedule: Q04DX003 (ip), vehicle: Klucel (hydroxypropylcellulose) (HPC)): 96 % of control

NC(=S)NC1OC(COC(=O)c2ccccc2)C(OC(=O)c2ccccc2)C1OC(=O)c1ccccc1 (stereo not given)
T/C (dose: 25.0 mg/kg/injection, schedule: Q04DX003 (ip), vehicle: saline with Tween-80): 98 % of control | T/C (dose: 50.0 mg/kg/injection, schedule: Q04DX003 (ip), vehicle: saline with Tween-80): 107 % of control | T/C [14]: 100 % of control | T/C [15]: 106 % of control

COC1=CC(=O)c2nc(Cl)ccc2C1=O
T/C (dose: 6.25 mg/kg/injection, schedule: Q01DX005 (ip), vehicle: saline with Tween-80): 100 % of control | T/C (dose: 12.5 mg/kg/injection, schedule: Q01DX005 (ip), vehicle: saline with Tween-80): 100 % of control | T/C (dose: 25.0 mg/kg/injection, schedule: Q01DX005 (ip), vehicle: saline with Tween-80): 108 % of control and 92 % of control | T/C [9]: 100 % of control

COCCOCn1cccc1Cc1ccc(C)cc1
T/C (dose: 100.0 mg/kg/injection, schedule: Q01DX001 (ip), vehicle: distilled water + alcohol): 100 % of control | T/C (dose: 200.0 mg/kg/injection, schedule: Q01DX001 (ip), vehicle: distilled water + alcohol): 96 % of control | T/C (dose: 400.0 mg/kg/injection, schedule: Q01DX001 (ip), vehicle: distilled water + alcohol): 99 % of control

Ic1ncnc2c1ncn2C1CCCCO1 (stereo not given)
T/C [12]: 95 % of control | T/C [4]: 95 % of control | T/C [14]: 100 % of control | T/C [13]: 100 % of control | T/C [5]: 104 % of control | T/C [15]: 91 % of control | T/C (dose: 400.0 mg/kg/injection, schedule: Q01DX009 (ip), vehicle: saline with Tween-80): 90 % of control | T/C (dose: 400.0 mg/kg/injection, schedule: Q04DX003 (ip), vehicle: saline with Tween-80): 95 % of control

O=C1CN(C(=O)Nc2ccccc2)c2ccccc2N1
T/C [9]: 92 % of control | T/C [10]: 93 % of control | T/C (dose: 200.0 mg/kg/injection, schedule: Q01DX005 (ip), vehicle: saline with Tween-80): 90 % of control

CCOC(=O)N1C=CN(C(=O)OCC)C1c1nccn1C(=O)OCC
T/C [11]: 100 % of control | T/C [12]: 96 % of control | T/C [13]: 105 % of control

CCC(C(=O)O)C(=O)O.[NH-]CC1CCCC[N-]1.[Pt+2]
T/C (dose: 25.0 mg/kg/injection, schedule: Q01DX005 (ip), vehicle: saline): 161 % of control | T/C (dose: 25.0 mg/kg/injection, schedule: Q01DX009 (ip), vehicle: saline): 161 % of control | T/C (dose: 50.0 mg/kg/injection, schedule: Q01DX005 (ip), vehicle: saline): 217 % of control | T/C [11]: 202 % of control | T/C [3]: 189 % of control | T/C (dose: 100.0 mg/kg/injection, schedule: Q01DX005 (ip), vehicle: saline): 243 % of control and 267 % of control | T/C [4]: 252 % of control | T/C (dose: 125.0 mg/kg/injection, schedule: Q01DX001 (ip), vehicle: saline): 161 % of control | T/C (dose: 250.0 mg/kg/injection, schedule: Q01DX001 (ip), vehicle: saline): 191 % of control | T/C (dose: 500.0 mg/kg/injection, schedule: Q01DX001 (ip), vehicle: saline): 173 % of control and 198 % of control

COc1cc(OC)c2c(=O)c3cc(OC)c(OC)cc3oc2c1
T/C (dose: 8.3 mg/kg/injection, schedule: Q01DX009 (ip), vehicle: Klucel (hydroxypropylcellulose) (HPC)): 98 % of control | T/C (dose: 16.5 mg/kg/injection, schedule: Q01DX009 (ip), vehicle: Klucel (hydroxypropylcellulose) (HPC)): 117 % of control | T/C (dose: 33.0 mg/kg/injection, schedule: Q01DX009 (ip), vehicle: Klucel (hydroxypropylcellulose) (HPC)): 107 % of control | T/C (dose: 66.0 mg/kg/injection, schedule: Q01DX009 (ip), vehicle: Klucel (hydroxypropylcellulose) (HPC)): 107 % of control

CC1=c2c(oc3cc(O)c(Nc4c(C)cc(O)cc4O)c(C)c23)=CC(=O)C1=Nc1c(C)cc(O)cc1O
T/C (dose: 60.0 mg/kg/injection, schedule: Q01DX005 (ip), vehicle: Klucel (hydroxypropylcellulose) (HPC)): 95 % of control | T/C (dose: 120.0 mg/kg/injection, schedule: Q01DX005 (ip), vehicle: Klucel (hydroxypropylcellulose) (HPC)): 89 % of control | T/C (dose: 240.0 mg/kg/injection, schedule: Q01DX005 (ip), vehicle: Klucel (hydroxypropylcellulose) (HPC)): 95 % of control

Cc1nc2c(ccc3ccccc32)s1
T/C (dose: 50.0 mg/kg/injection, schedule: Q01DX005 (ip), vehicle: Klucel (hydroxypropylcellulose) (HPC)): 106 % of control | T/C (dose: 100.0 mg/kg/injection, schedule: Q01DX005 (ip), vehicle: Klucel (hydroxypropylcellulose) (HPC)): 100 % of control | T/C (dose: 200.0 mg/kg/injection, schedule: Q01DX005 (ip), vehicle: Klucel (hydroxypropylcellulose) (HPC)): 100 % of control

FC(F)(F)c1ccc2nc3c(nc2c1)-c1ccc(Br)c2cccc-3c12
T/C [3]: 115 % of control | T/C [4]: 101 % of control | T/C [5]: 99 % of control

CC(=O)OC(CO)C(OC(C)=O)C(CNc1nc(N)[nH]c(=O)c1[N+](=O)[O-])OC(C)=O (stereo not given)
T/C [6]: 101 % of control | T/C [7]: 92 % of control | T/C [8]: 92 % of control
